Experimental data as given in patent USRE48097E1, “Cephem compounds, their production and use” (priority 2015, dated 2020).
≈ marks a conversion by molar mass, not a printed value. Where two headings read alike, the source gives them in different places.

Experiments:
[1] = test system: S. pneumoniae 2492; experiment: MIC against S. pneumoniae 2492; format: cell-based; conditions: Table 2, S. pneumoniae 2492, Pen R
Source text: (§1) Without limitation, the present cephem compounds alone, or in combination with one or more β-lactamase inhibitors, may provide improved antibacterial efficacy, particularly in antibiotic-resistant bacterial strains. It is believed that the present compounds may be structurally different from known compounds and, as a result, may be more basic in nature. It is an advantage that the present compounds may extend the spectrum of effective bacterial compounds, particularly against previously-resistant bacteria (e.g. ESKAPE organisms), and/or gram negative bacteria, without significant side effects. In a preferred embodiment, the present cephem compound may comprise reference compound ceftazidime, which may be used alone, or in combination with one or more β-lactamase inhibitors, such as NXL-104. As shown, the foregoing composition was tested for minimum inhibitory concentration (MIC, μg/mL) against bacteria listed in Tables 2-3.

[2] = test system: P. aeruginosa 2573; experiment: MIC against P. aeruginosa 2573; format: cell-based; conditions: Table 2, P. aeruginosa 2573, OXA-10 (Class D)
Source text: as §1

[3] = test system: K. pneumoniae 4108; experiment: MIC against K. pneumoniae 4108; format: cell-based; conditions: K. pneumoniae 4108, KPC-3, TEM-166, SHV-12, SHV-141
Procedure: (§2) As shown, the foregoing composition was tested for minimum inhibitory concentration (MIC, μg/mL) against bacteria listed in Tables 2-3.

[4] = test system: E. coli 4098; experiment: MIC against E. coli 4098; format: cell-based; conditions: Table 2, E. coli 4098, CTX-M-15, TEM-1
Source text: as §1

[5] = test system: E. coli 102; experiment: MIC against E. coli 102; format: cell-based; conditions: Table 2, E. coli 102, TEM-1
Source text: as §1

[6] = test system: E. cloacae 2709; experiment: MIC against E. cloacae 2709; format: cell-based; conditions: Table 3, E. cloacae 2709, KPC-3, VIM-1
Procedure: as §2

[7] = test system: E. coli 2671; experiment: MIC against E. coli 2671; format: cell-based; conditions: Table 2, E. coli 2671, VIM-19
Source text: as §1

[8] = test system: K. pneumoniae 4104; experiment: MIC against K. pneumoniae 4104; format: cell-based; conditions: K. pneumoniae 4104, KPC-3, TEM-1
Procedure: as §2

[9] = test system: K. pneumoniae 2697; experiment: MIC against K. pneumoniae 2697; format: cell-based; conditions: Table 2, K. pneumoniae 2697, IMP-4
Source text: as §1

[10] = test system: M. morganii 2409; experiment: MIC against M. morganii 2409; format: cell-based; conditions: Table 2, M. morganii 2409, High level cephase, β-Lactamase producing
Source text: as §1

[11] = test system: S. aureus 3144; experiment: MIC against S. aureus 3144; format: cell-based; conditions: Table 2, S. aureus 3144, MSSA
Source text: as §1

[12] = test system: S. pneumoniae 2406; experiment: MIC against S. pneumoniae 2406; format: cell-based; conditions: Table 2, S. pneumoniae 2406, Pen S
Source text: as §1

[13] = test system: E. coli 4101; experiment: MIC against E. coli 4101; format: cell-based; conditions: Table 2, E. coli 4101, CTX-M-14, TEM-1
Source text: as §1

[14] = test system: E. cloacae 2705; experiment: MIC against E. cloacae 2705; format: cell-based; conditions: Table 3, E. cloacae 2705, VIM-1, KPC-3type
Procedure: as §2

[15] = test system: S. aureus3137; experiment: MIC against S. aureus3137; format: cell-based, S. aureus; conditions: Table 2, S. aureus3137, MSSA
Source text: as §1

[16] = test system: C. freundii 15; experiment: MIC against C. freundii 15; format: cell-based; conditions: Table 2, C. freundii 15, Caz R, IMP S
Source text: as §1

[17] = test system: K. pneumoniae 2712; experiment: MIC against K. pneumoniae 2712; format: cell-based; conditions: Table 3, K. pneumoniae 2712, KPC-3, VIM-1
Procedure: as §2

[18] = test system: K. pneumoniae 2689; experiment: MIC against K. pneumoniae 2689; format: cell-based; conditions: K. pneumoniae 2689, KPC-2
Procedure: as §2

[19] = test system: K. baumanii 4094; experiment: MIC against K. baumanii 4094; format: cell-based; conditions: Table 2, K. baumanii 4094, OXA-51
Source text: as §1

[20] = test system: K. pneumoniae 4105; experiment: MIC against K. pneumoniae 4105; format: cell-based; conditions: K. pneumoniae 4105, KPC-3, TEM-1, SHV-11
Procedure: as §2

[21] = test system: E. cloacae 2706; experiment: MIC against E. cloacae 2706; format: cell-based; conditions: Table 3, E. cloacae 2706, VIM-1, KPC-3
Procedure: as §2

[22] = test system: E. cloacae 2044; experiment: MIC against E. cloacae 2044; format: cell-based; conditions: Table 2, E. cloacae 2044, Caz S, IMP S
Source text: as §1

[23] = test system: E. cloacae596; experiment: MIC against E. cloacae596; format: cell-based, E. cloacae; conditions: Table 2, E. cloacae596, Caz R, IMP S
Source text: as §1

[24] = Streptococcus pneumoniae, alone, read-out: MIC
[25] = Table 2, in combination with NXL-104
[26] = Table 3, in combination with NXL-104
[27] = Escherichia coli, alone, read-out: MIC
[28] = Enterobacter cloacae, alone, read-out: MIC
[29] = Klebsiella pneumoniae, alone, read-out: MIC
[30] = Staphylococcus aureus, alone, read-out: MIC

- MIC [1, 24]: 2 µg/mL
- MIC ([1]; in combination with NXL-104): 2.00 µg/mL
- MIC ([2]; Pseudomonas aeruginosa, alone, read-out: MIC): 4 µg/mL
- MIC ([2]; in combination with NXL-104): 4.00 µg/mL
- MIC ([3]; Klebsiella pneumoniae, 4108, Table 2, alone, read-out: MIC): 8 µg/mL (≈ 11.1 µM)
- MIC ([3]; Klebsiella pneumoniae, 4108, Table 3, alone, read-out: MIC): 32 µg/mL (≈ 44.2 µM)
- MIC [3, 25]: 0.50 µg/mL
- MIC [3, 26]: 1 µg/mL
- MIC [4, 27]: > 32 µg/mL
- MIC ([4]; in combination with NXL-104): 0.12 µg/mL
- MIC [5, 27]: ≤ 0.06 µg/mL
- MIC ([5]; in combination with NXL-104): ≤0.06 µg/mL
- MIC [6, 28]: 32 µg/mL (≈ 44.2 µM)
- MIC ([6]; in combination with NXL-104): 4 µg/mL
- MIC [7, 27]: 16 µg/mL
- MIC ([7]; in combination with NXL-104): 16.00 µg/mL
- MIC ([8]; Klebsiella pneumoniae, 4104, Table 2, alone, read-out: MIC): 32 µg/mL (≈ 44.2 µM)
- MIC ([8]; Klebsiella pneumoniae, 4104, Table 3, alone, read-out: MIC): 16 µg/mL (≈ 22.1 µM)
- MIC [8, 25]: 2.00 µg/mL
- MIC [8, 26]: 0.5 µg/mL
- MIC [9, 29]: 16 µg/mL
- MIC ([9]; in combination with NXL-104): 0.50 µg/mL
- MIC ([10]; Morganella morganii, alone, read-out: MIC): 16 µg/mL
- MIC ([10]; in combination with NXL-104): 0.50 µg/mL
- MIC [11, 30]: 4 µg/mL
- MIC ([11]; in combination with NXL-104): 4.00 µg/mL
- MIC [12, 24]: ≤ 0.06 µg/mL
- MIC ([12]; in combination with NXL-104): ≤0.06 µg/mL
- MIC [13, 27]: 0.5 µg/mL
- MIC ([13]; in combination with NXL-104): 0.12 µg/mL
- MIC [14, 28]: > 32 µg/mL
- MIC ([14]; in combination with NXL-104): >32 µg/mL
- MIC [15, 30]: 32 µg/mL
- MIC ([15]; in combination with NXL-104): 4.00 µg/mL
- MIC ([16]; Citrobacter freundii, alone, read-out: MIC): 16 µg/mL
- MIC ([16]; in combination with NXL-104): 0.50 µg/mL
- MIC [17, 29]: > 32 µg/mL
- MIC ([17]; in combination with NXL-104): 4 µg/mL
- MIC ([18]; Klebsiella pneumoniae, 2689, Table 2, alone, read-out: MIC): 8 µg/mL (≈ 11.1 µM)
- MIC ([18]; Klebsiella pneumoniae, 2689, Table 3, alone, read-out: MIC): 8 µg/mL (≈ 11.1 µM)
- MIC [18, 25]: 1.00 µg/mL
- MIC [18, 26]: 1 µg/mL
- MIC ([19]; alone, read-out: MIC): 16 µg/mL
- MIC ([19]; in combination with NXL-104): 4.00 µg/mL
- MIC ([20]; Klebsiella pneumoniae, 4105, Table 2, alone, read-out: MIC): 32 µg/mL (≈ 44.2 µM)
- MIC ([20]; Klebsiella pneumoniae, 4105, Table 3, alone, read-out: MIC): 32 µg/mL (≈ 44.2 µM)
- MIC [20, 25]: 1.00 µg/mL
- MIC [20, 26]: 1 µg/mL
- MIC [21, 28]: > 32 µg/mL
- MIC ([21]; in combination with NXL-104): 32 µg/mL
- MIC [22, 28]: 0.5 µg/mL
- MIC ([22]; in combination with NXL-104): 0.12 µg/mL
- MIC [23, 28]: 8 µg/mL
- MIC ([23]; in combination with NXL-104): 0.25 µg/mL
SMILES: CC(C)(O/N=C(\C(=O)N[C@@H]1C(=O)N2C(C(=O)[O-])=C(C[n+]3ccc4c(ccn4Cc4cc(C(=N)N)cs4)c3)CS[C@H]12)c1csc(N)n1)C(=O)O [Example 5, (6R,7R)-7-{[(2Z)-2-(2-Amino-1,3-thiazol-4-yl)-2-{[(2-carboxypropan-2-yl)oxy]imino}acetyl]amino}-3-({1-[(4-carbamimidoylthiophen-2-yl)methyl]-1H-pyrrolo[3,2-c]pyridin-5-ium-5-yl}methyl)-8-oxo-5-thia-1-azabicyclo[4.2.0]oct-2-ene-2-carboxylate]
